“And” between values parts separate entries of the source, which are not always exact repeats. Equal entries are not always repeated.
Assays:
human KOR (Gi3) [1] = target: T1, human KOR (Gi3) (Homo sapiens, UniProt P41145); assay: cell-based
T1 construct: expressed in transfected cells; host or cells: HEK293T

human KOR (Gi3) [2] = target: T2, human KOR (Gi3) (Homo sapiens, UniProt P41145, D105A); assay: cell-based; details: HEK-293T
T2 construct: expressed in transfected cells; host or cells: HEK293T

human KOR (Gi3) [3] = target: T3, human KOR (Gi3) (Homo sapiens, UniProt P41145, D155A); assay: cell-based; details: HEK-293T
T3 construct: expressed in transfected cells; host or cells: HEK293T

human KOR (Gi3) [4] = target: T4, human KOR (Gi3) (Homo sapiens, UniProt P41145, D266A); assay: cell-based; details: HEK-293T
T4 construct: expressed in transfected cells; host or cells: HEK293T

human KOR (Gi3) [5] = target: T5, human KOR (Gi3) (Homo sapiens, UniProt P41145, D334A); assay: cell-based; details: HEK-293T
T5 construct: expressed in transfected cells; host or cells: HEK293T

human KOR (Gi3) [6] = target: T6, human KOR (Gi3) (Homo sapiens, UniProt P41145, E297A); assay: cell-based; details: HEK-293T
T6 construct: expressed in transfected cells; host or cells: HEK293T

human KOR (Gi3) [7] = target: T7, human KOR (Gi3) (Homo sapiens, UniProt P41145, F283A); assay: cell-based; details: HEK-293T
T7 construct: expressed in transfected cells; host or cells: HEK293T

human KOR (Gi3) [8] = target: T8, human KOR (Gi3) (Homo sapiens, UniProt P41145, G319L); assay: cell-based; details: HEK-293T
T8 construct: expressed in transfected cells; host or cells: HEK293T

human KOR (Gi3) [9] = target: T9, human KOR (Gi3) (Homo sapiens, UniProt P41145, K200A); assay: cell-based; details: HEK-293T
T9 construct: expressed in transfected cells; host or cells: HEK293T

human KOR (Gi3) [10] = target: T10, human KOR (Gi3) (Homo sapiens, UniProt P41145, K227A); assay: cell-based; details: HEK-293T
T10 construct: expressed in transfected cells; host or cells: HEK293T

human KOR (Gi3) [11] = target: T11, human KOR (Gi3) (Homo sapiens, UniProt P41145, L253A); assay: cell-based; details: HEK-293T
T11 construct: expressed in transfected cells; host or cells: HEK293T

human KOR (Gi3) [12] = target: T12, human KOR (Gi3) (Homo sapiens, UniProt P41145, N141A); assay: cell-based; details: HEK-293T
T12 construct: expressed in transfected cells; host or cells: HEK293T

human KOR (Gi3) [13] = target: T13, human KOR (Gi3) (Homo sapiens, UniProt P41145, N322A); assay: cell-based; details: HEK-293T
T13 construct: expressed in transfected cells; host or cells: HEK293T

human KOR (Gi3) [14] = target: T14, human KOR (Gi3) (Homo sapiens, UniProt P41145, N326A); assay: cell-based; details: HEK-293T
T14 construct: expressed in transfected cells; host or cells: HEK293T

human KOR (Gi3) [15] = target: T15, human KOR (Gi3) (Homo sapiens, UniProt P41145, Q115N); assay: cell-based; details: HEK-293T
T15 construct: expressed in transfected cells; host or cells: HEK293T

human KOR (Gi3) [16] = target: T16, human KOR (Gi3) (Homo sapiens, UniProt P41145, R257A); assay: cell-based; details: HEK-293T
T16 construct: expressed in transfected cells; host or cells: HEK293T

human KOR (Gi3) [17] = target: T17, human KOR (Gi3) (Homo sapiens, UniProt P41145, R271A); assay: cell-based; details: HEK-293T
T17 construct: expressed in transfected cells; host or cells: HEK293T

human KOR (Gi3) [18] = target: T18, human KOR (Gi3) (Homo sapiens, UniProt P41145, R274A); assay: cell-based; details: HEK-293T
T18 construct: expressed in transfected cells; host or cells: HEK293T

human KOR (Gi3) [19] = target: T19, human KOR (Gi3) (Homo sapiens, UniProt P41145, T94V); assay: cell-based; details: HEK-293T
T19 construct: expressed in transfected cells; host or cells: HEK293T

human KOR (Gi3) [20] = target: T20, human KOR (Gi3) (Homo sapiens, UniProt P41145, Y139L); assay: cell-based; details: HEK-293T
T20 construct: expressed in transfected cells; host or cells: HEK293T

human KOR (Gi3) [21] = target: T21, human KOR (Gi3) (Homo sapiens, UniProt P41145, Y320L); assay: cell-based; details: HEK-293T
T21 construct: expressed in transfected cells; host or cells: HEK293T

human KOR (GoA) [22] = target: T22, human KOR (GoA) (Homo sapiens, UniProt P41145, D266A); assay: cell-based
T22 construct: expressed in transfected cells; host or cells: HEK293T

human KOR (GoA) [23] = target: T23, human KOR (GoA) (Homo sapiens, UniProt P41145, F283A); assay: cell-based
T23 construct: expressed in transfected cells; host or cells: HEK293T

human KOR (GoA) [24] = target: T24, human KOR (GoA) (Homo sapiens, UniProt P41145, N326A); assay: cell-based
T24 construct: expressed in transfected cells; host or cells: HEK293T

human KOR (GoA) [25] = target: T25, human KOR (GoA) (Homo sapiens, UniProt P41145, R170A); assay: cell-based
T25 construct: expressed in transfected cells; host or cells: HEK293T

human KOR [26] = target: T26, human KOR (Homo sapiens, UniProt P41145, F114L); assay: cell-based; details: HTLA
T26 construct: expressed in transfected cells; host or cells: HEK 293T (ATCC, CRL-3216)

human KOR [27] = target: T27, human KOR (Homo sapiens, UniProt P41145, G319L); assay: cell-based; details: HTLA
T27 construct: expressed in transfected cells; host or cells: HEK 293T (ATCC, CRL-3216)

human KOR [28] = target: T28, human KOR (Homo sapiens, UniProt P41145, K227A); assay: cell-based; details: HTLA
T28 construct: expressed in transfected cells; host or cells: HEK 293T (ATCC, CRL-3216)

human KOR [29] = target: T29, human KOR (Homo sapiens, UniProt P41145, Q115N); assay: cell-based; details: HTLA
T29 construct: expressed in transfected cells; host or cells: HEK 293T (ATCC, CRL-3216)

human KOR [30] = target: T30, human KOR (Homo sapiens, UniProt P41145, V134A); assay: cell-based; details: HTLA
T30 construct: expressed in transfected cells; host or cells: HEK 293T (ATCC, CRL-3216)

human KOR [31] = target: T31, human KOR (Homo sapiens, UniProt P41145, W124L); assay: cell-based; details: HTLA
T31 construct: expressed in transfected cells; host or cells: HEK 293T (ATCC, CRL-3216)

human KOR [32] = target: T32, human KOR (Homo sapiens, UniProt P41145, W287A); assay: cell-based; details: HTLA
T32 construct: expressed in transfected cells; host or cells: HEK 293T (ATCC, CRL-3216)

human KOR [33] = target: T33, human KOR (Homo sapiens, UniProt P41145, Y320L); assay: cell-based; details: HTLA
T33 construct: expressed in transfected cells; host or cells: HEK 293T (ATCC, CRL-3216)

KOR = tested on: KOR; set-up: method as in Cao et al., ACS Chem Neuro 2020; details: ref Cao et al., ACS Chem Neuro 2020; cited from earlier work
[34] = ref Liu et al., Neuropsychopharmacology, 2018, Abraham et al., cited from earlier work

T25 sequence (P41145 whole entry R170A): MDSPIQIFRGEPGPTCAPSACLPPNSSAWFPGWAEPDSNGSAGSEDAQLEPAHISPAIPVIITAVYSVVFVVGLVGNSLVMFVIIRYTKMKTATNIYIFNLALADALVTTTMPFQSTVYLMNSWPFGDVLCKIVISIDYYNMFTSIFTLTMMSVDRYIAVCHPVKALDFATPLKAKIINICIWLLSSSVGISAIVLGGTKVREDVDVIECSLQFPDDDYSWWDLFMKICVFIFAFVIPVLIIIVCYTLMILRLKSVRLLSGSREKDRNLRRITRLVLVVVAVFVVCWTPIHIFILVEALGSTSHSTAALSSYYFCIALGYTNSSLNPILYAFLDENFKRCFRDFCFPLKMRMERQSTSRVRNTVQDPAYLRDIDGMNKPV
T31 sequence (P41145 whole entry W124L): as the sequence (P41145 whole entry R170A) above, with W124L, A170R counted along it
T26 sequence (P41145 whole entry F114L): as the sequence (P41145 whole entry R170A) above, with F114L, A170R counted along it
T33 sequence (P41145 whole entry Y320L): as the sequence (P41145 whole entry R170A) above, with A170R, Y320L counted along it
T30 sequence (P41145 whole entry V134A): as the sequence (P41145 whole entry R170A) above, with V134A, A170R counted along it
T23 sequence (P41145 whole entry F283A): as the sequence (P41145 whole entry R170A) above, with A170R, F283A counted along it
T27 sequence (P41145 whole entry G319L): as the sequence (P41145 whole entry R170A) above, with A170R, G319L counted along it
T24 sequence (P41145 whole entry N326A): as the sequence (P41145 whole entry R170A) above, with A170R, N326A counted along it
T1 sequence (P41145 whole entry): as the sequence (P41145 whole entry R170A) above, with A170R counted along it
T22 sequence (P41145 whole entry D266A): as the sequence (P41145 whole entry R170A) above, with A170R, D266A counted along it
T7 sequence (P41145 whole entry F283A): as the sequence (P41145 whole entry R170A) above, with A170R, F283A counted along it
T15 sequence (P41145 whole entry Q115N): as the sequence (P41145 whole entry R170A) above, with Q115N, A170R counted along it
T29 sequence (P41145 whole entry Q115N): as the sequence (P41145 whole entry R170A) above, with Q115N, A170R counted along it
T11 sequence (P41145 whole entry L253A): as the sequence (P41145 whole entry R170A) above, with A170R, L253A counted along it
T8 sequence (P41145 whole entry G319L): as the sequence (P41145 whole entry R170A) above, with A170R, G319L counted along it
T14 sequence (P41145 whole entry N326A): as the sequence (P41145 whole entry R170A) above, with A170R, N326A counted along it
T2 sequence (P41145 whole entry D105A): as the sequence (P41145 whole entry R170A) above, with D105A, A170R counted along it
T12 sequence (P41145 whole entry N141A): as the sequence (P41145 whole entry R170A) above, with N141A, A170R counted along it
T5 sequence (P41145 whole entry D334A): as the sequence (P41145 whole entry R170A) above, with A170R, D334A counted along it
T32 sequence (P41145 whole entry W287A): as the sequence (P41145 whole entry R170A) above, with A170R, W287A counted along it
T10 sequence (P41145 whole entry K227A): as the sequence (P41145 whole entry R170A) above, with A170R, K227A counted along it
T28 sequence (P41145 whole entry K227A): as the sequence (P41145 whole entry R170A) above, with A170R, K227A counted along it
T20 sequence (P41145 whole entry Y139L): as the sequence (P41145 whole entry R170A) above, with Y139L, A170R counted along it
T16 sequence (P41145 whole entry R257A): as the sequence (P41145 whole entry R170A) above, with A170R, R257A counted along it
T13 sequence (P41145 whole entry N322A): as the sequence (P41145 whole entry R170A) above, with A170R, N322A counted along it
T6 sequence (P41145 whole entry E297A): as the sequence (P41145 whole entry R170A) above, with A170R, E297A counted along it
T9 sequence (P41145 whole entry K200A): as the sequence (P41145 whole entry R170A) above, with A170R, K200A counted along it
T21 sequence (P41145 whole entry Y320L): as the sequence (P41145 whole entry R170A) above, with A170R, Y320L counted along it
T19 sequence (P41145 whole entry T94V): as the sequence (P41145 whole entry R170A) above, with T94V, A170R counted along it
T3 sequence (P41145 whole entry D155A): as the sequence (P41145 whole entry R170A) above, with D155A, A170R counted along it
T17 sequence (P41145 whole entry R271A): as the sequence (P41145 whole entry R170A) above, with A170R, R271A counted along it
T4 sequence (P41145 whole entry D266A): as the sequence (P41145 whole entry R170A) above, with A170R, D266A counted along it
T18 sequence (P41145 whole entry R274A): as the sequence (P41145 whole entry R170A) above, with A170R, R274A counted along it

SMILES: CN(C(=O)/C=C/c1ccoc1)[C@@H]1CC[C@@]2(O)[C@H]3Cc4ccc(O)c5c4[C@@]2(CCN3CC2CC2)[C@H]1O5 [Nalfurafine, nalfurafine]
- Emax% (human KOR (Gi3) [1]): 99.93%
- Emax (human KOR (Gi3) [1]; HEK-293T): 100%
- Emax (human KOR (Gi3) [2]): 81.7%
- Emax (human KOR (Gi3) [3]): 77.8%
- Emax (human KOR (Gi3) [4]): 105%
- Emax (human KOR (Gi3) [5]): 101%
- Emax (human KOR (Gi3) [6]): 100%
- Emax (human KOR (Gi3) [7]): 74.8%
- Emax (human KOR (Gi3) [8]): 106%
- Emax (human KOR (Gi3) [9]): 93.1%
- Emax (human KOR (Gi3) [10]): 106%
- Emax (human KOR (Gi3) [11]): 104%
- Emax (human KOR (Gi3) [12]): 107%
- Emax (human KOR (Gi3) [13]): 95.8%
- Emax (human KOR (Gi3) [14]): 106%
- Emax (human KOR (Gi3) [15]): 78.7%
- Emax (human KOR (Gi3) [16]): 100%
- Emax (human KOR (Gi3) [17]): 103%
- Emax (human KOR (Gi3) [18]): 98.8%
- Emax (human KOR (Gi3) [19]): 98.2%
- Emax (human KOR (Gi3) [20]): 96%
- Emax (human KOR (Gi3) [21]): 66.9%
- FC vs wild type (human KOR (GoA) [22]): 132
- Emax (human KOR (GoA) [22]; HEK-293T): 108%
- FC vs wild type (human KOR (GoA) [23]): 13
- Emax (human KOR (GoA) [23]; HEK-293T): 89.5%
- FC vs wild type (human KOR (GoA) [24]): 4
- Emax (human KOR (GoA) [24]; HEK-293T): 103%
- FC vs wild type (human KOR (GoA) [25]): 6 and ~10
- Emax (human KOR (GoA) [25]; HEK-293T): 86.9%
- Emax (human KOR [26]): 17 ± 3%
- activation at 1 µM (human KOR [26]; read-out: Tango response): 16.2%
- activation at 10 µM (human KOR [26]; read-out: Tango response): 15.9%
- activation at […] (human KOR [26]; read-out: Tango response): 30.3%
- Emax (human KOR [27]): 2.6 ± 1.2%
- activation at 1 µM (human KOR [27]; read-out: Tango response): 4.03%
- Emax (human KOR [28]): 89 ± 3%
- Emax (human KOR [29]): 98 ± 3%
- Emax (human KOR [30]): 76 ± 6%
- activation at 10 µM (human KOR [30]; read-out: Tango response): 71.1%
- activation at […] (human KOR [30]; read-out: Tango response): 50.8% and 73.3%
- Emax (human KOR [31]): 26 ± 4%
- activation at 1 µM (human KOR [31]; read-out: Tango response): 19.6%
- activation at […] (human KOR [31]; read-out: Tango response): 21% and 25.5%
- Emax (human KOR [32]): 85 ± 7%
- Emax (human KOR [33]): 66 ± 7%
- activation at 0.1 µM (human KOR [33]; read-out: Tango response): 43.6%
- activation at 1 µM (human KOR [33]; read-out: Tango response): 51.8%
- activation at 10 µM (human KOR [33]; read-out: Tango response): 79.2%
- activation at […] (human KOR [33]; read-out: Tango response): 53% and 72.8%
- bias factor toward G protein signaling (KOR): 4.5
- side effects ([34]; high dose 20-50 μg/Kg): starts causing motor incoordination, sedation, and aversion effects
- side effects (dysphoria, sedation, hallucinations) ([34]; low dose 2.5-20 μg/Kg): does not produce typical

— PMC10008561 (Nature Communications, 2023)
